The test system of this assay is Plasmodium falciparum. Nature of the assay: GSK_TCMDC: Inhibition of Plasmodium falciparum 3D7 in whole erythrocytes, using parasite LDH activity as an index of growth. The assay is classed as functional, organism-based. Conditions: Plasmodium falciparum, 3D7.
For the compound `COc1ccc(Nc2nc(N/N=C/c3ccc(-c4ccc([N+](=O)[O-])cc4)o3)nc(Nc3ccccc3)n2)cc1`, the XC50 was 761 nM.
Under `Cc1ccc(Nc2nc(N/N=C/c3ccccc3[N+](=O)[O-])nc(Nc3ccc([N+](=O)[O-])cc3)n2)cc1C` stands 692 nM; under `CC(C)N(Cc1ccc(-c2ccc(C(F)(F)F)cc2)cc1)C(=O)Cn1c(CCc2cccc(F)c2F)cc(=O)c2ccc(CCCN3CCCCC3)cc21`, 736 nM; under `O=C(Cn1c(CCc2cccc(F)c2F)cc(=O)c2ccccc21)N(CCN1CCCCC1)Cc1ccc(-c2ccc(C(F)(F)F)cc2)cc1`, 764 nM.
`O=C(/C=C/c1ccc(Cl)c(Cl)c1)NCCCCCN1CCCN(C(=O)Nc2ccc(Cl)c(Cl)c2)CC1` returned an XC50 of 864 nM.
The value for `CCOC(=O)c1ccc(NC(=O)Nc2cccc(-c3cccc(-c4nc5cc(F)ccc5[nH]4)c3)c2)cc1` was 94.7 nM; that for `FC(F)(F)c1ccc2[nH]c(-c3ccc(-c4cccc(CNCCc5cccnc5)c4)s3)nc2c1` was 170 nM.
The value for `CCCOc1cccc(C(=O)N[C@@H](Cc2ccccc2)[C@H](O)CNCc2cccc(OC)c2)c1` was 741 nM.
As for `O=C(NC1CCN(Cc2ccc3c(c2)OCCO3)CC1)c1ccc(-c2cccc(Cl)c2)s1`, the XC50 worked out at 1910 nM.
Regarding `CCCCC(O)c1cc(O)c2c(c1)OC(C)(C)CC2C1=CCN(Cc2ccc3ccccc3c2)CC1` (centres undefined), the XC50 stood at 970 nM.
Under `COc1ccccc1C(C)NCC(=O)Nc1ccccc1Sc1ccccc1` (centres undefined) stands 1100 nM; under `NCc1ccc(CNCc2cccc(-c3cccc(-c4nc5ccccc5[nH]4)c3)c2)cc1`, 489 nM.
`O=S(=O)(Nc1cccc(CCN2CCC(N3CCCCC3)CC2)c1)c1ccccc1C(F)(F)F` had an XC50 of 1150 nM.
The value for `N=C(N)NCCCCN(Cc1ccccc1)c1ccccc1` was 745 nM; that for `Fc1ccc2[nH]c(-c3cccc(-c4ccc(CNCc5cnn(-c6ccccc6)n5)cc4)c3)nc2c1` was 917 nM.
The value for `O=C(Nc1cccc(C(F)(F)F)c1)Nc1ccc2nonc2c1` was 849 nM; that for `CCCCCCN1CCCN(Cc2cccc(C(=O)Nc3ccc(C(C)(C)C)cc3)c2)CC1` was 943 nM; that for `Cc1noc(C)c1-c1ccc2c(Nc3nccc4ccccc34)c(C(N)=O)cnc2c1` was 895 nM.
The value for `COc1ccc(C=NN=c2cc(C)[nH]c3ccccc23)cc1OC` was 859 nM; that for `CCC(O)c1ccc(Br)cc1NC(=O)c1cccc(Cl)c1` (centres undefined) was 1020 nM; that for `CC(O)C1CCCCN1C(=O)c1ccc(-c2cccc(-c3nc4cc(F)ccc4[nH]3)c2)cc1` (centres undefined) was 540 nM.
In turn, `Cc1cccc2[nH]cc(C3CCN(CC4CCC(NC(=O)/C=C/c5ccc(Cl)c(Cl)c5)CC4)CC3)c12` (centres undefined) displayed an XC50 of 163 nM.
The value for `CCCCCCc1c(C)nc2cc(OC)ccc2c1O` was 119 nM; that for `CCCc1ccccc1OCC(O)CN(C1CCCC1)C1CCCC1` (centres undefined) was 470 nM.
For the compound `CCCC1N=C(N)N=C(N)N1c1ccc(CC)cc1` (centres undefined), the XC50 is 66.9 nM.
The value for `CCC(C)CNC(=O)CN1CN(c2ccccc2)C2(CCN(C(=O)c3ccc(Br)cc3)CC2)C1=O` (centres undefined) was 1070 nM; that for `CCn1ccc2c(N3CCCC3=O)cc(C(=O)N[C@@H](Cc3ccccc3)[C@H](O)CNC3CCCCC3)cc21` was 119 nM; that for `CN1CCN(CCCN(Cc2ccc(-c3cccc(CNC4CCCC4)c3)cc2)C(=O)Nc2ccccc2)CC1` was 1120 nM.
For `COc1cccc(C(=O)Nc2ccc(Nc3nc(C)cc(N4CCCCC4)n3)cc2)c1OC`, the XC50 is 1020 nM.
Under `CC1=C(C(=O)OC(C)C)C(c2ccccc2Cl)C2=C(CC(c3ccccc3)CC2=O)N1` (centres undefined) stands 850 nM.
In the case of `CCNc1cc(C(=O)N[C@@H](Cc2ccccc2)[C@H](O)CNC2(CC)CC2)cc(N2CCCCS2(=O)=O)c1`, the XC50 worked out at 1610 nM.
The value for `Cc1noc(C)c1-c1cccc(CNCc2ccc(-c3ccc(-c4nc5ccccc5[nH]4)s3)cc2)c1` was 556 nM; that for `COc1cc(F)c2nccc([C@@H](O)CN3CCC(NCc4cc5c(cc4F)OCCO5)CC3)c2c1` was 679 nM.
Under `Cc1cccc2nc(-c3cccc(-c4cccc(NC(=O)CN5CCN(C)CC5)c4)c3)[nH]c12` stands 533 nM; under `O=C(NCc1ccc(Cl)c(Cl)c1)c1ccc(-c2nc3cc(F)c(F)cc3[nH]2)cc1`, 1050 nM; under `N#Cc1ccc2c(c1)CCN(CCC1CCC(NC(=O)/C=C/c3c[nH]c4c(Br)cccc34)CC1)CC2` (centres undefined), 379 nM.
Under `O=C(Nc1ccccc1-c1ccccc1)C1CCCN1C(=O)Nc1ccc(Cl)cc1` (centres undefined) stands 793 nM; under `COc1ccc(C2CC(c3cccs3)=NN2C(=O)COc2cccc3c2CCCC3O)cc1OC` (centres undefined), 1150 nM.
In the case of `Cn1c(NC(=O)C2CCC(CNC(=O)c3ccc(O)c(-c4ccc(Cl)c(Cl)c4)c3)CC2)nc2ccccc21` (centres undefined), the XC50 was 654 nM.
The value for `CCCNC(=O)Nc1cc2cc(-c3ccc(CN4CCCC4)cc3)ccc2n2c(C)nnc12` was 1500 nM; that for `NC1=NC(c2ccccc2)N(c2ccccc2)C(N)=N1` (centres undefined) was 294 nM.
Take `COc1cc2nc(N3CCC(NC(=O)c4cccc(N(C)C)c4)CC3)nc(N)c2cc1OC`: the XC50 was 614 nM.
The value for `c1ccc2c(c1)ncc1c3ccccc3[nH]c21` was 866 nM; that for `O=C(/C=C/c1ccc(Cl)c(Cl)c1)NCCCCCN1CCCC(CNS(=O)(=O)c2ccc(F)cc2)C1` (centres undefined) was 1160 nM; that for `Cc1[nH]c(C)c(-c2ccc(-c3ccc(OC(F)(F)F)cc3)cc2)c(=O)c1Br` was 38.6 nM.
The value for `CCC(ON1C(N)=NC(N)=NC1(C)C)c1ccc(Cl)cc1` (centres undefined) was 3.2 nM; that for `Cc1cnc(C(=O)Nc2cccc(-c3ccc(-c4nc5cc(C(F)(F)F)ccc5[nH]4)s3)c2)cn1` was 704 nM.
The value for `CCc1c(CCNCCCCCCNCCc2ccc(OC)cc2)ccc(OC)c1OC` was 871 nM; that for `Fc1ccc2[nH]c(-c3ccc(-c4ccc(CN5CCCCC5)cc4)s3)nc2c1` was 602 nM.
For the compound `Cc1cc(NC(=O)Nc2ccc3ccn(C)c3c2)c2ccccc2n1`, the XC50 was 214 nM.
Under `COc1ccc2nccc([C@@H](O)CN3CCC(NCCOc4ccc(F)cc4[N+](=O)[O-])CC3)c2c1` stands 116 nM; under `CCCCCCCc1c(C)nc2cccc(OC)c2c1O`, 1130 nM.
Under `CC(C)c1ccc(CN(C)CCCCNC(=O)c2ccc(NC(=O)c3ccc(Cl)cc3)cc2)cc1` stands 994 nM; under `CN(C)/C(=N/C(=N)Nc1ccc(Cl)cc1)NCCCCCCN/C(=N\C(=N)Nc1ccc(Cl)cc1)N(C)C`, 533 nM; under `COc1ccc2nccc([C@@H](O)CN3CCC(NC(=O)c4ccc(OC)c(N)c4)CC3)c2c1`, 715 nM.
Under `Cc1cccc(C)c1/N=C1\NC(=S)N(c2cccc(Cl)c2)C12CCC(C(C)(C)C)CC2` (centres undefined) stands 760 nM.
Regarding `COc1cc2nc(N3CCC(CNC(=O)c4ccc(-c5ccc(O)cc5)cc4)CC3)nc(N)c2cc1OC`, the XC50 amounted to 175 nM.
The value for `CC1(C)[C@H]2CC[C@@H](CNc3nc(NCC(=O)Nc4ccc5ccccc5c4)nc(N4CCC(N5CCCC5)CC4)n3)[C@@H]1C2` was 1190 nM; that for `CC(C)N1CCN(C(CN2CCN(CCCOc3cccc4ccccc34)CC2)c2ccc(F)cc2)CC1` (centres undefined) was 879 nM; that for `COc1ccc(Cn2c(Nc3cccc(C(F)(F)F)c3)nc3cc(C(=O)NCCCN(C)C)ccc32)cc1Cl` was 913 nM.
Under `C[C@@H](Oc1cc(-n2cnc3ccc(NC(=O)CCN4CCCCC4)cc32)sc1C(N)=O)c1ccccc1Cl` stands 991 nM; under `Cn1cc(-c2ccccc2C(=O)O)c(=O)c2cc(Cl)ccc21`, 917 nM; under `Nc1ncc(-c2ccsc2)cc1-c1nc2ccccc2[nH]1`, 851 nM.
Under `CC(C)CCN1CCCN(Cc2cccc(NC(=O)c3ccc(-c4ccccc4)cc3)c2)CC1` stands 888 nM; under `Cc1c(CNCCCNc2nc3ccccc3[nH]2)[nH]c2cc(Cl)cc(Cl)c12`, 232 nM.
On to `CC[C@H]1CN2CC[C@@H]1C[C@H]2[C@H](O)c1cc(-c2ccc(F)cc2)nc2ccc(O)cc12`, for which the XC50 was 140 nM.
Under `CCN(CCCN1CCCCC1)c1cc(C)nc(Nc2ccc(C)c(Cl)c2)n1` stands 207 nM; under `CC(C)Sc1nc2c(c(=O)n1CCc1ccccc1)C1(CCCC1)Cc1ccccc1-2`, 347 nM; under `c1cncc(CNc2ncc(-c3ccsc3)c(-c3nccs3)n2)c1`, 1380 nM.
For `COc1ccc(NC(=O)[C@H](Cc2ccccc2)Nc2cc(C)nc(NCCOc3ccccc3)n2)cc1`, the XC50 came out at 1070 nM.
The value for `CC(C)CNCc1cccc(-c2cccc(CN(C(=O)Nc3ccccc3)C3CCN(Cc4ccccc4)CC3)c2)c1` was 369 nM; that for `CCN(c1ccc(O)c(CN2CCCCC2)c1)c1ccc([N+](=O)[O-])cn1` was 886 nM.
The value for `CC(C)(C)OC(=O)NCc1ccc(Nc2nnc(-c3cccc(C(=O)NCCC(c4ccccc4)c4ccccc4)c3)o2)cc1` was 581 nM.
`CC(Oc1ccc(C(=O)c2ccc(F)cc2)cc1)C(=O)N1CCc2ccccc21` (centres undefined) showed an XC50 of 413 nM.
The compound `COc1ccc(NC(=O)Nc2ccc(-c3cccc(-c4nc5ccccc5[nH]4)c3)cc2)cc1` returned an XC50 of 764 nM.
The value for `C#CCN(Cc1cc2c(=O)[nH]c(N)nc2cc1C)c1ccc(C(=O)N[C@@H](CCC(=O)O)C(=O)O)cc1` was 625 nM; that for `COc1cccc(C(=O)NCCc2cccc(Cl)c2)c1Oc1ccccc1` was 844 nM; that for `O=c1cc(NCCCNC2CCCc3c2cc(Cl)c(Cl)c3Cl)[nH]c2ccccc12` (centres undefined) was 276 nM.
The value for `CN(C)C(CNC(=O)c1cc(-c2ccncc2)c(-c2ccc(Cl)c(O)c2)o1)c1ccccc1` (centres undefined) was 843 nM; that for `O=[N+]([O-])c1ccc(C2=NN(S(=O)(=O)c3c(Cl)cc(Cl)cc3Cl)CCCC2)cc1` was 125 nM; that for `COc1c(C2CCN(CCCCNC(=O)c3cc(-c4ccc(Cl)cc4)[nH]c3C)CC2)ccc2c1CCCC2` was 970 nM.
Regarding `Cc1cc(N2Cc3ccccc3C2)nc(Nc2ccc(S(=O)(=O)N3CCOCC3)cc2)n1`, the XC50 came out at 1110 nM.
On to `COc1cc2nc(SCC(C)C)n(CCCn3ccnc3)c(=N)c2cc1OC`, for which the XC50 came to 610 nM.
Under `COc1cc2c(cc1C(F)(F)F)N(C(=O)Nc1cc(F)c(F)c(-c3cccnc3)c1)CC2` stands 626 nM.
